Experimental data from BindingDB's records for doi:10.1021/jm7012858 (Wyeth Research, 2008).

Molecular target: Phosphatidylinositol 3-kinase regulatory subunit alpha/4,5-bisphosphate 3-kinase catalytic subunit alpha isoform (Homo sapiens, UniProt P42336)
Assay: PI3K Inhibition Assay
Protocol: Inhibition of PI3K enzyme activity is measured in a microtiter plate-based fluorescence polarization (FP) assay.

Sequence of Phosphatidylinositol 3-kinase regulatory subunit alpha/4,5-bisphosphate 3-kinase catalytic subunit alpha isoform (P27986 whole entry, canonical isoform): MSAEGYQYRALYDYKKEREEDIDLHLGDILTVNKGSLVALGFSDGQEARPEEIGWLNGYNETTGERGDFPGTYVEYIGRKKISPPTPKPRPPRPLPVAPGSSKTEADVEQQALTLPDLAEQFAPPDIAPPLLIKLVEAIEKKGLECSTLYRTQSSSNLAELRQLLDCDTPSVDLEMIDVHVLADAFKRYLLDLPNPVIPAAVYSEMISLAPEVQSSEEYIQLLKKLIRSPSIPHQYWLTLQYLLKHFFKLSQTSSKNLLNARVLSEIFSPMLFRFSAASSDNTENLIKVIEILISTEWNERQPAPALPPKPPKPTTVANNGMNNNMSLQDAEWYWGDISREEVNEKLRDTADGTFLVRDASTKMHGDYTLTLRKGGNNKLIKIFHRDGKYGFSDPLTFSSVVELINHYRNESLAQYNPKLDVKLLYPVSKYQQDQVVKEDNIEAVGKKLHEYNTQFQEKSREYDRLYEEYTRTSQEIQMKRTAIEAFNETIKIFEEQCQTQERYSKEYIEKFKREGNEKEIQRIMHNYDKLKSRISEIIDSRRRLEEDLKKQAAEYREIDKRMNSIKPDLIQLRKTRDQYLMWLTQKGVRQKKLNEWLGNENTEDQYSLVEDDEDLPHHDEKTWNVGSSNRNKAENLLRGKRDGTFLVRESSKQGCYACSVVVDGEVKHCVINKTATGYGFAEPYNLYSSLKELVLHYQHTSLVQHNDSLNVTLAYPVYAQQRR
Sequence of Phosphatidylinositol 3-kinase regulatory subunit alpha/4,5-bisphosphate 3-kinase catalytic subunit alpha isoform (P42336 whole entry, canonical isoform): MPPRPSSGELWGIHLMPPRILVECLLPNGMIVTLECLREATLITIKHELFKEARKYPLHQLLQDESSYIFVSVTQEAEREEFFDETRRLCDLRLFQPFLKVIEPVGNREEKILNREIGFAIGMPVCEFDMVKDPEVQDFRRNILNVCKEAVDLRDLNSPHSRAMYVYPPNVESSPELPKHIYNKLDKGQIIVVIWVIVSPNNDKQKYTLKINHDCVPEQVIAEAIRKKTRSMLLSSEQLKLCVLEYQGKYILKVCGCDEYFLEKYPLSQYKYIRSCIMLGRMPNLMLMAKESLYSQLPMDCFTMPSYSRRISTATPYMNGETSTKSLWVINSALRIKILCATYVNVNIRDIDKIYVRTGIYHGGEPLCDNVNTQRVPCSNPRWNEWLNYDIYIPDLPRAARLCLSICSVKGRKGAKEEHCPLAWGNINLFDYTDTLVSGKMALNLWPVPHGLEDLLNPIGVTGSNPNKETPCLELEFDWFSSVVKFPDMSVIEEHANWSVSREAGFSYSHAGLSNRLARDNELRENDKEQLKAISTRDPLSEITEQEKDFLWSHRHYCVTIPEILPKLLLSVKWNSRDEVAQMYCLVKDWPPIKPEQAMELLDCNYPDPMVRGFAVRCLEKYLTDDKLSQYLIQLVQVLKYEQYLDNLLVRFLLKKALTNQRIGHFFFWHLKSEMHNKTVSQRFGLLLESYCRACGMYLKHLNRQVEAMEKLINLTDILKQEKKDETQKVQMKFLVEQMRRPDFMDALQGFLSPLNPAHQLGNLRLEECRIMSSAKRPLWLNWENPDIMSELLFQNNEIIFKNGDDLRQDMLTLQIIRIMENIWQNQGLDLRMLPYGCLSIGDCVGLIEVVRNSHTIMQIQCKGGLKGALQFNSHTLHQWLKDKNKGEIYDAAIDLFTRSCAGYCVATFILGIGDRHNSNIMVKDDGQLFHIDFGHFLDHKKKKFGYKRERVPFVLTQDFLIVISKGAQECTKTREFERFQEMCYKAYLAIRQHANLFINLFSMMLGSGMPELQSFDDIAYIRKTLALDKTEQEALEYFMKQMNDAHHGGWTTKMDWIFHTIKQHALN

SMILES | IC50 (pH 7.5, 22 °C) | IC50
COC[C@H]1OC(=O)C(=CN2CCCC2)C2C(=O)C(=O)C3=C([C@H](OC(C)=O)C[C@@]4(C)C3CC[C@@H]4O)[C@]21C (stereo partly drawn) [(2R,3S,6Z,14S,15S,17R)-8,14-dihydroxy-3-(methoxymethyl)-2,15-dimethyl-5,9-dioxo-6-(pyrrolidin-1-ylmethylidene)-4-oxatetracyclo[8.7.0.0^{2,7}.0^{11,15}]heptadeca-1(10),7-dien-17-yl acetate] | 496 nM | 
COC[C@H]1OC(=O)C(=CN2CCN(Cc3ccccc3)CC2)C2C(=O)C(=O)C3=C([C@H](OC(C)=O)C[C@@]4(C)C3CC[C@@H]4O)[C@]21C (stereo partly drawn) [(2R,3S,6E,14S,15S,17R)-6-[(4-benzylpiperazin-1-yl)methylidene]-8,14-dihydroxy-3-(methoxymethyl)-2,15-dimethyl-5,9-dioxo-4-oxatetracyclo[8.7.0.0^{2,7}.0^{11,15}]heptadeca-1(10),7-dien-17-yl acetate] |  | 87 nM
COC[C@H]1OC(=O)C(=CN2CCCCC2)C2C(=O)C(=O)C3=C([C@H](OC(C)=O)C[C@@]4(C)C3CC[C@@H]4O)[C@]21C (stereo partly drawn) [(2R,3S,6E,14S,15S,17R)-8,14-dihydroxy-3-(methoxymethyl)-2,15-dimethyl-5,9-dioxo-6-(piperidin-1-ylmethylidene)-4-oxatetracyclo[8.7.0.0^{2,7}.0^{11,15}]heptadeca-1(10),7-dien-17-yl acetate] |  | 104 nM
COC[C@H]1OC(=O)C(=CN2CCC(=O)CC2)C2C(=O)C(=O)C3=C([C@H](OC(C)=O)C[C@@]4(C)C3CC[C@@H]4O)[C@]21C (stereo partly drawn) [(2R,3S,6E,14S,15S,17R)-8,14-dihydroxy-3-(methoxymethyl)-2,15-dimethyl-5,9-dioxo-6-[(4-oxopiperidin-1-yl)methylidene]-4-oxatetracyclo[8.7.0.0^{2,7}.0^{11,15}]heptadeca-1(10),7-dien-17-yl acetate] |  | 60 nM
COC[C@H]1OC(=O)C(=CN(C)CCCN2CCN(C)CC2)C2C(=O)C(=O)C3=C([C@H](OC(C)=O)C[C@@]4(C)C3CC[C@@H]4O)[C@]21C (stereo partly drawn) [(2R,3S,6E,14S,15S,17R)-8,14-dihydroxy-3-(methoxymethyl)-2,15-dimethyl-6-({methyl[3-(4-methylpiperazin-1-yl)propyl]amino}methylidene)-5,9-dioxo-4-oxatetracyclo[8.7.0.0^{2,7}.0^{11,15}]heptadeca-1(10),7-dien-17-yl acetate] |  | 10 nM
COC[C@H]1OC(=O)C(=CN2CCOCC2)C2C(=O)C(=O)C3=C([C@H](OC(C)=O)C[C@@]4(C)C3CC[C@@H]4O)[C@]21C (stereo partly drawn) [(2R,3S,6E,14S,15S,17R)-8,14-dihydroxy-3-(methoxymethyl)-2,15-dimethyl-6-(morpholin-4-ylmethylidene)-5,9-dioxo-4-oxatetracyclo[8.7.0.0^{2,7}.0^{11,15}]heptadeca-1(10),7-dien-17-yl acetate] |  | 37 nM
CCN(C=C1C(=O)O[C@H](COC)[C@]2(C)C3=C(C(=O)C(=O)C12)C1CC[C@H](O)[C@@]1(C)C[C@H]3OC(C)=O)CC (stereo partly drawn) [(2R,3S,6Z,14S,15S,17R)-6-[(diethylamino)methylidene]-8,14-dihydroxy-3-(methoxymethyl)-2,15-dimethyl-5,9-dioxo-4-oxatetracyclo[8.7.0.0^{2,7}.0^{11,15}]heptadeca-1(10),7-dien-17-yl acetate] | 382 nM | 
CCNC=C1C(=O)O[C@H](COC)[C@]2(C)C3=C(C(=O)C(=O)C12)C1CC[C@H](O)[C@@]1(C)C[C@H]3OC(C)=O (stereo partly drawn) [(2R,3S,6Z,14S,15S,17R)-6-[(ethylamino)methylidene]-8,14-dihydroxy-3-(methoxymethyl)-2,15-dimethyl-5,9-dioxo-4-oxatetracyclo[8.7.0.0^{2,7}.0^{11,15}]heptadeca-1(10),7-dien-17-yl acetate] | > 10000 nM | 
COC[C@H]1OC(=O)C(=CN(C)CCCN2CCOCC2)C2C(=O)C(=O)C3=C([C@H](OC(C)=O)C[C@@]4(C)C3CC[C@@H]4O)[C@]21C (stereo partly drawn) [(2R,3S,6E,14S,15S,17R)-8,14-dihydroxy-3-(methoxymethyl)-2,15-dimethyl-6-({methyl[3-(morpholin-4-yl)propyl]amino}methylidene)-5,9-dioxo-4-oxatetracyclo[8.7.0.0^{2,7}.0^{11,15}]heptadeca-1(10),7-dien-17-yl acetate] |  | 24 nM
COC[C@H]1OC(=O)C(=CN2CCC(C(=O)OC)CC2)C2C(=O)C(=O)C3=C([C@H](OC(C)=O)C[C@@]4(C)C3CC[C@@H]4O)[C@]21C (stereo partly drawn) [methyl 1-{[(2R,3S,6E,14S,15S,17R)-17-(acetyloxy)-8,14-dihydroxy-3-(methoxymethyl)-2,15-dimethyl-5,9-dioxo-4-oxatetracyclo[8.7.0.0^{2,7}.0^{11,15}]heptadeca-1(10),7-dien-6-ylidene]methyl}piperidine-4-carboxylate] |  | 31 nM
COC[C@H]1OC(=O)C(=CN(C)CCCN2CCN(c3ccc(OC)cc3)CC2)C2C(=O)C(=O)C3=C([C@H](OC(C)=O)C[C@@]4(C)C3CC[C@@H]4O)[C@]21C (stereo partly drawn) [(2R,3S,6E,14S,15S,17R)-8,14-dihydroxy-3-(methoxymethyl)-6-[({3-[4-(4-methoxyphenyl)piperazin-1-yl]propyl}(methyl)amino)methylidene]-2,15-dimethyl-5,9-dioxo-4-oxatetracyclo[8.7.0.0^{2,7}.0^{11,15}]heptadeca-1(10),7-dien-17-yl acetate] |  | 15 nM
COC[C@H]1OC(=O)C(=CN(C)CCCC(=O)O)C2C(=O)C(=O)C3=C([C@H](OC(C)=O)C[C@@]4(C)C3CC[C@@H]4O)[C@]21C (stereo partly drawn) [4-({[(2R,3S,6E,14S,15S,17R)-17-(acetyloxy)-8,14-dihydroxy-3-(methoxymethyl)-2,15-dimethyl-5,9-dioxo-4-oxatetracyclo[8.7.0.0^{2,7}.0^{11,15}]heptadeca-1(10),7-dien-6-ylidene]methyl}(methyl)amino)butanoic acid] |  | 193 nM
COC[C@H]1OC(=O)C(=CN(CCCN(C)C)CCCN(C)C)C2C(=O)C(=O)C3=C([C@H](OC(C)=O)C[C@@]4(C)C3CC[C@@H]4O)[C@]21C (stereo partly drawn) [(2R,3S,6E,14S,15S,17R)-6-({bis[3-(dimethylamino)propyl]amino}methylidene)-8,14-dihydroxy-3-(methoxymethyl)-2,15-dimethyl-5,9-dioxo-4-oxatetracyclo[8.7.0.0^{2,7}.0^{11,15}]heptadeca-1(10),7-dien-17-yl acetate] |  | 22 nM
CCN(C=C1C(=O)O[C@H](COC)[C@]2(C)C3=C(C(=O)C(=O)C12)C1CC[C@H](O)[C@@]1(C)C[C@H]3OC(C)=O)CCN(CC)CC (stereo partly drawn) [(2R,3S,6E,14S,15S,17R)-6-({[2-(diethylamino)ethyl](ethyl)amino}methylidene)-8,14-dihydroxy-3-(methoxymethyl)-2,15-dimethyl-5,9-dioxo-4-oxatetracyclo[8.7.0.0^{2,7}.0^{11,15}]heptadeca-1(10),7-dien-17-yl acetate] |  | 24 nM
C=CCN(C=C1C(=O)O[C@H](COC)[C@]2(C)C3=C(C(=O)C(=O)C12)C1CCC(=O)[C@@]1(C)C[C@H]3OC(C)=O)CC=C (some centres not stated) [PX-866] | 88 nM | 

Further lines, results first:

IC50 (pH 7.5, 22 °C) | IC50 | SMILES
 | 5 nM | CCN(C=C1C(=O)O[C@H](COC)[C@]2(C)C3=C(C(=O)C(=O)C12)C1CC[C@H](O)[C@@]1(C)C[C@H]3OC(C)=O)CCN(C)C (stereo partly drawn) [(2R,3S,6E,14S,15S,17R)-6-({[2-(dimethylamino)ethyl](ethyl)amino}methylidene)-8,14-dihydroxy-3-(methoxymethyl)-2,15-dimethyl-5,9-dioxo-4-oxatetracyclo[8.7.0.0^{2,7}.0^{11,15}]heptadeca-1(10),7-dien-17-yl acetate]
 | 45 nM | COC[C@H]1OC(=O)C(=CN2CCN(CCCN3CCOCC3)CC2)C2C(=O)C(=O)C3=C([C@H](OC(C)=O)C[C@@]4(C)C3CC[C@@H]4O)[C@]21C (stereo partly drawn) [(2R,3S,6E,14S,15S,17R)-8,14-dihydroxy-3-(methoxymethyl)-2,15-dimethyl-6-({4-[3-(morpholin-4-yl)propyl]piperazin-1-yl}methylidene)-5,9-dioxo-4-oxatetracyclo[8.7.0.0^{2,7}.0^{11,15}]heptadeca-1(10),7-dien-17-yl acetate]
 | 8.4 nM | COC[C@H]1OC(=O)C(=CN(C)CCN(C)C)C2C(=O)C(=O)C3=C([C@H](OC(C)=O)C[C@@]4(C)C3CC[C@@H]4O)[C@]21C (stereo partly drawn) [(2R,3S,6E,14S,15S,17R)-6-({[2-(dimethylamino)ethyl](methyl)amino}methylidene)-8,14-dihydroxy-3-(methoxymethyl)-2,15-dimethyl-5,9-dioxo-4-oxatetracyclo[8.7.0.0^{2,7}.0^{11,15}]heptadeca-1(10),7-dien-17-yl acetate]
 | 172 nM | COC[C@H]1OC(=O)C(=CN2CCC(c3ccccc3)CC2)C2C(=O)C(=O)C3=C([C@H](OC(C)=O)C[C@@]4(C)C3CC[C@@H]4O)[C@]21C (stereo partly drawn) [(2R,3S,6E,14S,15S,17R)-8,14-dihydroxy-3-(methoxymethyl)-2,15-dimethyl-5,9-dioxo-6-[(4-phenylpiperidin-1-yl)methylidene]-4-oxatetracyclo[8.7.0.0^{2,7}.0^{11,15}]heptadeca-1(10),7-dien-17-yl acetate]
 | 90 nM | COC[C@H]1OC(=O)C(=CN2CCN(C)CC2)C2C(=O)C(=O)C3=C([C@H](OC(C)=O)C[C@@]4(C)C3CC[C@@H]4O)[C@]21C (stereo partly drawn) [(2R,3S,6E,14S,15S,17R)-8,14-dihydroxy-3-(methoxymethyl)-2,15-dimethyl-6-[(4-methylpiperazin-1-yl)methylidene]-5,9-dioxo-4-oxatetracyclo[8.7.0.0^{2,7}.0^{11,15}]heptadeca-1(10),7-dien-17-yl acetate]
> 10000 nM |  | COC[C@H]1OC(=O)C(=CNC(C)(C)C)C2C(=O)C(=O)C3=C([C@H](OC(C)=O)C[C@@]4(C)C3CC[C@@H]4O)[C@]21C (stereo partly drawn) [(2R,3S,6Z,14S,15S,17R)-6-[(tert-butylamino)methylidene]-8,14-dihydroxy-3-(methoxymethyl)-2,15-dimethyl-5,9-dioxo-4-oxatetracyclo[8.7.0.0^{2,7}.0^{11,15}]heptadeca-1(10),7-dien-17-yl acetate]
 | 43 nM | COC[C@H]1OC(=O)C(=CN2CCN(C3CCCCC3)CC2)C2C(=O)C(=O)C3=C([C@H](OC(C)=O)C[C@@]4(C)C3CC[C@@H]4O)[C@]21C (stereo partly drawn) [(2R,3S,6E,14S,15S,17R)-6-[(4-cyclohexylpiperazin-1-yl)methylidene]-8,14-dihydroxy-3-(methoxymethyl)-2,15-dimethyl-5,9-dioxo-4-oxatetracyclo[8.7.0.0^{2,7}.0^{11,15}]heptadeca-1(10),7-dien-17-yl acetate]
